Data on 101 compounds can be found in the RepoRT retention time repository (doi:10.1016/j.jhazmat.2019.121712).

A short description of this data set: Thermo Scientific Acclaim RSLC 120 C18, 100 × 2.1 mm, 2.2 µm, 30 °C; A: 90% water + 10% methanol + 0.01% formic acid + 5 mM ammonium formate; B: methanol + 0.01% formic acid + 5 mM ammonium formate; gradient (min/%B) 0.1/1 3/39 14/99.9 16/99.9. The following applies: stereoisomer not certain.
As for `c1ccc2scnc2c1`, the LC retention time came to 6.88 min.
Then `COc1ccc2cccc(CCNC(C)=O)c2c1`, with 8.68 min; and `CNC(=N[N+](=O)[O-])NCC1CCOC1` (stereo unspecified), with 3.59 min.
With `COc1cc2c(cc1OC)C(=O)C(CC1CCN(Cc3ccccc3)CC1)C2` (stereo unspecified), the LC retention time turned out to be 5.81 min.
The result for `c1cnc2cc3c(cc2n1)C1CNCC3C1` reads 3.63 min.
`CCN(CC)CCNC(=O)COc1ccc(OC)cc1`: the LC retention time was determined as 4.31 min.
The result for `CC(Cc1ccc(O)cc1)NCC(O)c1cc(O)cc(O)c1` (stereo unspecified) reads 3.61 min; that for `COc1cc(OC)nc(NC(=O)NS(=O)(=O)N(C)S(C)(=O)=O)n1`, 6.77 min.
The result for `CCOC(=O)C1(c2ccccc2)CCC=CC1NC` (stereo unspecified) reads 5.28 min.
The result for `Cc1ccc2n[nH]nc2c1` reads 5.83 min; that for `CCOc1ccc(NC(=O)CC(C)O)cc1` (stereo unspecified), 6.27 min; that for `CC(C)N(C(=O)CS(=O)(=O)O)c1ccccc1`, 5.46 min.
In the case of `c1cncc(C2CCCCN2)c1` (stereo unspecified), the LC retention time turned out to be 2.94 min.
Then `CC(=O)Oc1c(C)cc(OCC(O)CNC(C)C)c(C)c1C` (stereo unspecified), with 6.28 min; and `c1ccc(C2(N3CCCCC3)CCCCC2)cc1`, with 5.74 min.
The result for `Nc1nc2c(ncn2CCC(CO)CO)c(=O)[nH]1` reads 2.98 min.
The result for `CCCC(Cc1ccccc1)N1CCCC1` (stereo unspecified) reads 5.56 min; that for `O=C(c1ccccc1)c1ccc2n1CCC2C(=O)O` (stereo unspecified), 6.94 min; that for `CCC(C)(CC)c1cc(NC(=O)c2c(OC)cccc2OC)on1`, 9.42 min.
Take `CCOC(=O)C(CCc1ccccc1)NC(C)C(=O)N1C(C(=O)O)CC2CCCC21` (stereo unspecified): the LC retention time worked out at 8.56 min.
The result for `CCCCCn1cc(C(=O)Cc2ccccc2C)c2ccccc21` reads 12.2 min.
The result for `CN1CCN(CCCN2c3ccccc3Sc3ccccc32)CC1` reads 8.8 min.
Turning to `Nc1nc(=S)c2[nH]cnc2[nH]1`, the LC retention time came out at 2.53 min.
The result for `Nc1nc2ccccc2[nH]1` reads 3.74 min; that for `COP(=S)(OC)Oc1ccc(C#N)cc1`, 8.27 min; that for `CCOc1nc2cccc(C(=O)OC(C)OC(=O)OC3CCCCC3)c2n1Cc1ccc(-c2ccccc2-c2nn[nH]n2)cc1` (stereo unspecified), 12.2 min.
Then `C=CCOc1ccccc1OCC(O)CNC(C)C` (stereo unspecified), with 5.66 min.
Then `COP(=S)(OC)Oc1ccc(S(C)(=O)=O)c(C)c1`, with 7.57 min.
As for `CON=C1CC2(CC3CC(CC=C(C)CC(C)C=CC=C4COC5C(O)C(C)=CC(C(=O)O3)C45O)O2)OC(C(C)=CC(C)C)C1C` (stereo unspecified), the LC retention time is 13.8 min.
Then `CC(=O)Oc1ccc(C(c2ccc(OC(C)=O)cc2)c2ccccn2)cc1`, with 8.92 min; and `CN(C)CCC=C1c2ccccc2C(C)(C)c2ccccc21`, with 8.79 min; and `CNC(=C[N+](=O)[O-])NCCSCc1ccc(CN(C)C)o1`, with 3.14 min.
Regarding `N=C(N)c1ccccc1`, the LC retention time amounted to 2.63 min.
For the compound `CCCCCCn1c(=O)c2c(ncn2C)n(C)c1=O`, the LC retention time is 9.44 min.
The result for `CC1(C)CC1C(=O)NC(=CCCCCSCC(N)C(=O)O)C(=O)O` (stereo unspecified) reads 4.88 min.
Then `CCSC(=O)N1CCCCCC1`, with 9.89 min.
As for `CCNC1(c2cccc(OC)c2)CCCCC1=O` (stereo unspecified), the LC retention time came out at 4.93 min.
Then `CCCCCCn1cc(C(=O)c2cccc3ccccc23)c2ccccc21`, with 12.9 min; and `COc1cc(CCN)cc(OC)c1OC`, with 3.88 min.
On to `CCOC(=O)C(c1ccccc1)C1CCCCN1` (stereo unspecified), for which the LC retention time stood at 5.08 min.
The result for `COc1ccc2c3c1OC1CC(O)C=CC31CCN(C)C2` (stereo unspecified) reads 2.99 min; that for `Nc1c2c(nc3ccccc13)CCCC2`, 4.77 min; that for `Nc1ccc(S(=O)(=O)Nc2ccccn2)cc1`, 3.8 min.
Then `CCOc1ccc(S(=O)(=O)O)c2cccnc12`, with 3.56 min.
Then `CC(Cc1ccccc1)NCCC(c1ccccc1)c1ccccc1` (stereo unspecified), with 8.89 min; and `CNC1C(C)OC(OC2C(C)OC(OC3C(C)=CCC4CC(CC5(C=CC(C)C(C(C)C)O5)O4)OC(=O)C4C=C(C)C(O)C5OCC(=CC=CC3C)C45O)CC2OC)CC1OC` (stereo unspecified), with 12 min.
For the compound `O=C(O)c1cc(N=Nc2ccc(S(=O)(=O)Nc3ccccn3)cc2)ccc1O`, the LC retention time came out at 6.61 min.
The result for `CN1CCC(=C2c3ccccc3CCc3sccc32)CC1` reads 7.86 min; that for `CCCC(C(=O)c1ccc2ccccc2c1)N1CCCC1` (stereo unspecified), 7.33 min.
Then `CC(C)OC(=O)Nc1ccc2nc(-c3cscn3)[nH]c2c1`, with 7.66 min; and `COC(=O)NC(=S)Nc1ccccc1NC(=S)NC(=O)OC`, with 6.93 min; and `CCC(=O)C(CC(C)N(C)C)(c1ccccc1)c1ccccc1` (stereo unspecified), with 8.04 min.
Then `CCOc1ccccc1C(N)=O`, with 5.68 min; and `O=C(c1cccc2ccccc12)c1cn(CCCCCO)c2ccccc12`, with 10 min.
Consider `CN1CCCN=C1COC(=O)C(O)(c1ccccc1)C1CCCCC1` (stereo unspecified), for which the LC retention time was found to be 7.98 min.
The result for `O=S(=O)(O)NC1CCCCC1` reads 6.99 min; that for `COc1ccc(N)cc1N`, 2.37 min.
Then `CCCCNC(=O)NS(=O)(=O)c1ccc(N)cc1`, with 5.36 min; and `CCOC(=O)c1ccccc1C(=O)OCC`, with 8.5 min.
The result for `CCCc1nn(C)c2c(=S)nc(-c3cc(S(=O)(=O)N4CCN(C)CC4)ccc3OCC)[nH]c12` reads 10.6 min; that for `CCSc1cc(OC)c(CCN)cc1OC`, 5.88 min.
Consider `CCCCCCC(C)(C)c1ccc(C2CCCC(O)C2)c(O)c1` (stereo unspecified), for which the LC retention time is 13.1 min.
As for `CCc1cc(OC)c(CC(C)N)cc1OC` (stereo unspecified), the LC retention time amounted to 6.88 min.
Regarding `CC(=O)OCCC(SC(C)=O)=C(C)N(C=O)Cc1cnc(C)nc1N`, the LC retention time turned out to be 4.46 min.
Then `COc1ccc(C(C[N+](C)(C)[O-])C2(O)CCCCC2)cc1` (stereo unspecified), with 6.94 min; and `c1ccc(C2CN3CCSC3=N2)cc1` (stereo unspecified), with 3.68 min.
Then `COc1cccc(C2(O)CCCCC2CN(C)C)c1` (stereo unspecified), with 4.88 min; and `CC(O)CN1CCN(CC(=O)O)CCN(CC(=O)O)CCN(CC(=O)O)CC1` (stereo unspecified), with 1.31 min.
Take `CNC(=O)Oc1cccc(N=CN(C)C)c1`: the LC retention time stood at 3.14 min.
The result for `CC(C)NCC(O)COc1ccc(CC(=O)O)cc1` (stereo unspecified) reads 3.93 min.
Consider `Nc1ncnc2nc[nH]c12`, for which the LC retention time amounted to 2.43 min.
Then `CC1C(c2ccccc2)OCCN1C` (stereo unspecified), with 4.06 min; and `CCCC(C(=O)c1ccc(C)cc1)N1CCCC1` (stereo unspecified), with 6.03 min.
Then `CC1(C)SC2C(NC(=O)C(N)c3ccccc3)C(=O)N2C1C(=O)O` (stereo unspecified), with 4.21 min.
The result for `CNCCOC(c1ccccc1)c1ccccc1C` (stereo unspecified) reads 7.54 min; that for `Cc1ccc(NS(=O)(=O)N(C)C)cc1`, 7.25 min.
Take `CCNc1nc(NCC)[nH]c(=O)n1`: the LC retention time turned out to be 4.21 min.
The result for `CC(C)(C)NCC(O)c1cc(O)cc(O)c1` (stereo unspecified) reads 3.11 min; that for `CCOP(=S)(OCC)SCS(=O)(=O)C(C)(C)C`, 9.01 min; that for `CCCc1nn(C)c2c(=O)[nH]c(-c3cc(S(=O)(=O)N4CCNCC4)ccc3OCC)nc12`, 7.35 min.
`COC(=O)C1C2CC3c4[nH]c5cc(OC)ccc5c4CCN3CC2CC(OC(=O)c2cc(OC)c(OC)c(OC)c2)C1OC` (stereo unspecified): the LC retention time was determined as 8.47 min.
The result for `C=C(c1ccc(C(=O)O)cc1)c1cc2c(cc1C)C(C)(C)CCC2(C)C` reads 14.1 min; that for `Cc1cccc(Nc2ccncc2S(=O)(=O)NC(=O)NC(C)C)c1`, 6.67 min.
The result for `COC(=O)C1C(O)CCC2CN3CCc4c([nH]c5ccccc45)C3CC21` (stereo unspecified) reads 5.08 min.
The result for `CC(=O)c1ccc(S(=O)(=O)NC(=O)NC2CCCCC2)cc1` reads 7.72 min; that for `CCCCn1cc(C(=O)c2cccc3ccccc23)c2cc(O)ccc21`, 11.3 min.
In the case of `COC(=O)C1=CCCN(C)C1`, the LC retention time was 1.74 min.
Then `O=C1CC2(CCCC2)CC(=O)N1CCCCN1CCN(c2ncccn2)CC1`, with 5.78 min; and `COC(=O)Nc1cccc(OC(=O)Nc2cccc(C)c2)c1`, with 8.75 min; and `CCCc1cc(C(N)=S)ccn1`, with 6.36 min.
Then `NCCCCC(NC(CCc1ccccc1)C(=O)O)C(=O)N1CCCC1C(=O)O` (stereo unspecified), with 3.98 min.
Then `CNC(=O)Oc1cc(C)cc(C)c1`, with 7.78 min; and `COC(=O)c1ccccc1C(=O)OC`, with 6.63 min; and `CCCCc1c(C)nc(NCC)[nH]c1=O`, with 8 min.
Take `CCN(C)C(=O)Oc1cccc(C(C)N(C)C)c1` (stereo unspecified): the LC retention time was determined as 4.74 min.
Then `NC(N)=NCC1COc2ccccc2O1` (stereo unspecified), with 4.57 min.
With `Cc1cccc(Nc2ccccc2C(=O)O)c1C`, the LC retention time turned out to be 11.6 min.
The result for `CC(C)(C)N1CCC(c2ccccc2)(c2ccccc2)CC1` reads 6.72 min.
Then `CCCCCn1cc(C(=O)c2cccc3ccccc23)c2c(O)cccc21`, with 12.5 min; and `CNC(=O)Oc1cc(C)c(S(C)(=O)=O)c(C)c1`, with 5.28 min.
Then `COc1ccc(C(=O)c2cn(CCCCCO)c3ccccc23)cc1`, with 9.18 min.
